Like-named read-outs stand apart in the source and are kept apart here. *1 amine or outer side, *2 acyl side, *3 side chain or, on linkers, in order; H or OH if unused. Where a SMILES comes first, the peptide text is derived from it. Where no end group is shown, it is not given here. [ ]: non-standard residue; d: D form. hGln = L-homoglutamine, NC(=O)CCC[C@H](N[*:1])C(=O)[*:2]; pyridine‑bisazole = not defined here
B1: thiopeptide IR8 (synthetic) (peptide)
chain: SWTL[hGln]WKRRTWKSCSC
modifications: bridge (positions not given here) via pyridine‑bisazole; reading uncertain; also: macrocycle closed through a pyridine-bisazole moiety, oxazole to thiazole change

Experiments:
Serum stability assay = assay type: in vitro ADME; conditions: human serum, 37 °C, LC/MS; for half-life at 10 µM: pH 7.6, read-out: serum stability τ1/2 (converted)
Protocol: Next, we tested the metabolic stability of the discovered thiopeptides. The compounds were incubated in human serum at 37 °C in the presence of an internal control, and the amounts of the remaining analytes were quantified by LC/MS (Figures S27 and 28). […] At the other extreme, IR11 rapidly degraded in human serum with τ1/2 = 0.5 h. […]
Kinetic parameters and affinities of the […]
2.12. Thiopeptide metabolic stability experiments
The mixtures were stirred
well and transferred to a 37 °C thermostat. […]

[1] = target: T1, Biotinylated IRAK4 (kinase domain, amino acids 1-460; NP_057207.2) (Homo sapiens, UniProt Q9NWZ3); assay: Surface plasmon resonance binding to IRAK4
T1 construct: acids 1-460; NP_057207.2) was purchased from Carna Biosciences; purchased Carna Biosciences (Kobe, Japan)
T1 sequence (Q9NWZ3 1-460): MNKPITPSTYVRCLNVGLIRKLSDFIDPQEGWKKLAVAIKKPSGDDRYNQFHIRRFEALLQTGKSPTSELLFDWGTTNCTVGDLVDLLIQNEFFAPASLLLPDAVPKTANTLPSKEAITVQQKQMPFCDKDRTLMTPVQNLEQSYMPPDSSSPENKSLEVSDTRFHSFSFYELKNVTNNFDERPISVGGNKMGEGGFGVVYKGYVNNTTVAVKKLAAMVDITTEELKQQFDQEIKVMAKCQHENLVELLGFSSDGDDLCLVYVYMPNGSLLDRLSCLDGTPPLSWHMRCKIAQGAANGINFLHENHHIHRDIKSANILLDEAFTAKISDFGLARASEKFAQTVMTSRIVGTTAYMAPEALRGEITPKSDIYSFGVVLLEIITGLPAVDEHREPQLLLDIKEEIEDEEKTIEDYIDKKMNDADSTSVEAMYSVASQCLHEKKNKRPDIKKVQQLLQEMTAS
Excerpt: Reagents were purchased from Nacalai Tesque, Wako Pure Chemical Industries, Sigma-Aldrich Japan, or TCI Chemicals and were used as received. Biotinylated IRAK4 (kinase domain, amino acids 1-460; NP_057207.2) was purchased from Carna Biosciences (Kobe, Japan). Recombinant human TLR10 Fc Chimera protein (extracellular domain, amino acid 20-576; Q9BXR5) was purchased from R&D system (#6619-TR-050). Anti-HA magnetic beads were from Pierce Thermo Fisher Scientific (#88836). Magnetic beads with immobilized streptavidin were from Invitrogen (Dynabeads Streptavidin C1, # 65001). Magnetic beads with immobilized streptavidin were from Invitrogen (Dynabeads Streptavidin M280, #11206D).
Protein purification and synthesis of Streptomyces lactacystinaeus tRNAGlu were done as previously described.1–3 Protein concentration measurements were carried out on a Nanodrop 2000c spectrophotometer (Thermo Scientific) equipped with a 5 mm pathlength quartz cuvette using extinction coefficient values calculated with ExPASy ProtParam tool (https://web.expasy.org/protparam).
Biochemical measurements (sections 2.10 – 2.14) were performed in triplicate or more. Most experiments were reproduced to an analogous outcome at least once. In the cases where the determination of biophysical parameters involved cell assay (CP50 and IC50), reported are standard errors of the fit; otherwise, error bars are standard deviations.
RNA extracted from the gel with 300 mM NaCl were collected by ethanol precipitation followed by centrifugation (15300 g for 15 min) and dissolved in water for storage. tRNAini was aminoacylated with eFx using biotin-Phe-CME as a substrate. tRNAini (25 µM) and eFx (25 µM) were incubated with biotin-Phe-CME (5 mM) in HEPES-KOH buffer (50 mM; pH 7.5) containing 600 mM MgCl2 on ice for 2 h. The reactions were stopped with the addition of 300 mM NaOAc (pH 5.2), and precipitated with ethanol. Precipitated RNA was recovered by centrifugation (15300 g for 15 min). The pellet was washed with 70% ethanol in water (v/v) containing 100 mM NaOAc (pH 5.2) and used in translation.
2.10. Surface plasmon resonance
Binding affinities between the thiopeptides and IRAK4/TLR10 were measured with a Biacore 8K instrument (GE Healthcare) at 25 °C. The assay buffer for IRAK4 binding analysis contained 50 mM Tris (pH 7.5), 150 mM NaCl, 10 mM MgCl2, 0.05% (v/v) tween-20 and 0.1% (v/v) DMSO. The […]
Biotinylated IRAK4 was immobilized on a Biacore CAP chip (GE Healthcare) to a surface density […]
step was allowed to proceed for 480 s. Kinetic parameters and affinities of the interaction were […]
provided by the manufacturer. The interaction sensorgrams were measured as single -cycle […]
Kinetic parameters and affinities of the
Evaluation Software v.3.0 (GE Healthcare).

IRAK4 [2] = target: T2, IRAK4 (Homo sapiens, UniProt Q9NWZ3); assay: biochemical
T2 sequence (Q9NWZ3 1-460): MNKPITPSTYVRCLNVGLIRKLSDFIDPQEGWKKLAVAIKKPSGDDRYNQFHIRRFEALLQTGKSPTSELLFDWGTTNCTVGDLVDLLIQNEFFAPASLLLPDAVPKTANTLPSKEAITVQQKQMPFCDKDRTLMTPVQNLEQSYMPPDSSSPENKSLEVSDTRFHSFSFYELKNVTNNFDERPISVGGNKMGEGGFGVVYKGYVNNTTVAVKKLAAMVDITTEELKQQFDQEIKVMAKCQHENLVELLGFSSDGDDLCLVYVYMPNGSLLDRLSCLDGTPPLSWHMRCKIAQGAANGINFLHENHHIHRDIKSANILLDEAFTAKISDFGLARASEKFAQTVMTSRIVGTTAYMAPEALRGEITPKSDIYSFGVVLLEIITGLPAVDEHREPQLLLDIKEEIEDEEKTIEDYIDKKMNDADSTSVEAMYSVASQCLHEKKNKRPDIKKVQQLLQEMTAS

IRAK4 [3] = target: T2, IRAK4; assay: Single-round mRNA display binding assay (qPCR), IRAK4; set-up: acids 1-460; NP_057207.2) was purchased from Carna Biosciences; purchased Carna Biosciences (Kobe, Japan); conditions: ratio of cDNA recoveries (qPCR), IRAK4 pulldown over beads only, single-round selection
IRAK4 [4] = target: T2, IRAK4; assay: mRNA display affinity selection against IRAK4, NGS abundance; assay type: binding; set-up: acids 1-460; NP_057207.2) was purchased from Carna Biosciences; purchased Carna Biosciences (Kobe, Japan); conditions: IRAK4 selection, NGS abundance rank
THP1-XBlue cells = assay: Cell viability with Cell Counting Kit-8; conditions: at the tested concentrations
Protocol: 2.13. NF-kB signaling pathway inhibition assay
THP-1 Cellular Assay. THP1-XBlue cells containing an NF-kB-inducible secreted embryonic alkaline phosphatase (SEAP) reporter gene (InvivoGen) were seeded to 96-well assay plates (10^5 cells/well) with RPMI 1640 culture medium containing 10% fetal calf serum. The cells were pre-treated with various concentration of analyte thiopeptide inhibitor in 0.1% DMSO and incubated at 37 °C for 6 h. LPS-EK (30 ng/mL, InvivoGen) was subsequently added to activate the NF-kB signalling for 20 h. To quantitate SEAP activity, supernatants were harvested (300 g, 5min) and mixed with Quanti-Blue (InvivoGen) detection reagent following the manufacturer’s instructions.
Cells were assayed with cell counting kit-8 in parallel to rule out potential cytotoxicity. The plates

[5] = target: T3, interleukin-1 receptor-associated kinase 4 (UniProt Q9NWZ3 1-460); assay: SPR; surface plasmon resonance of synthetic thiopeptides on their target protein; conditions in S.I. 2.10 (not shown); conditions: both partners purified
T3 construct: interleukin-1 receptor-associated kinase 4 (IRAK4); also called IRAK4; IRAK4 kinase
T3 sequence (looked up): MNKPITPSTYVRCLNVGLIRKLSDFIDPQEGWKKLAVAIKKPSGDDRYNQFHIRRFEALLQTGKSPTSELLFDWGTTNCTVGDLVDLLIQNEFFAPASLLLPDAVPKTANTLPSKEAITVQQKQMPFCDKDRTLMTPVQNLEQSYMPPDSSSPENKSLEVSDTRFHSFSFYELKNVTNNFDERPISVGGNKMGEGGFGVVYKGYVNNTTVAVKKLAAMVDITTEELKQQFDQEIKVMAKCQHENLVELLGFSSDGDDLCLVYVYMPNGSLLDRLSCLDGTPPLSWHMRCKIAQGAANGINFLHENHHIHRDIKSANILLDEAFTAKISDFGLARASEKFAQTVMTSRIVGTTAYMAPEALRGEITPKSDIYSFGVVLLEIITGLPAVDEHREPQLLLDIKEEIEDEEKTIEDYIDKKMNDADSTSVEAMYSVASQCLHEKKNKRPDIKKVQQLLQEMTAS

Molecule	half-life at 10 µM (Serum stability assay) [min]	display P/N ratio (IRAK4 [3])	rank in pulldown(+) (IRAK4 [4])	rank in pulldown(–) (IRAK4 [4])	further results
C=C1NC(=O)[C@H](Cc2c[nH]cn2)NC(=O)[C@@H]2CCCN2C(=O)[C@H](CCCNC(=N)N)NC(=O)[C@H](CCCNC(=N)N)NC(=O)[C@H](CCCNC(=N)N)NC(=O)[C@H](C)NC(=O)[C@H](Cc2c[nH]c3ccccc23)NC(=O)[C@H](Cc2ccc(O)cc2)NC(=O)[C@H](CC(C)C)NC(=O)[C@H](CO)NC(=O)[C@H](CCSC)NC(=O)[C@H](C)NC(=O)[C@H](Cc2c[nH]c3ccccc23)NC(=O)c2ccc(-c3nc(C(=O)OC)cs3)nc2-c2csc1n2 [IR11] (HELM PEPTIDE1{W.A.M.S.L.Y.W.A.R.R.R.P.H}|CHEM1{[C=C(N[*:2])c1nc(-c2nc(-c3nc(C(=O)OC)cs3)ccc2C(=O)[*:1])cs1]}$PEPTIDE1,CHEM1,1:R1-1:R1|PEPTIDE1,CHEM1,13:R2-1:R2$$$V2.0)	30 ± 2.4	1072	30	15	serum stability τ1/2 (Serum stability assay): 0.5 h; koff ([1]; SPR, IRAK4, read-out: koff): 0.0021 s⁻¹; kon ([1]; SPR, IRAK4, read-out: kon): 783 M⁻¹ s⁻¹; IC50 (IRAK4 [2]): 4100 ± 300 nM
C=C1NC(=O)[C@H](CCCCN)NC(=O)[C@H](Cc2c[nH]c3ccccc23)NC(=O)[C@H]([C@@H](C)O)NC(=O)[C@H](CCCNC(=N)N)NC(=O)[C@H](CCCNC(=N)N)NC(=O)[C@H](CCCCN)NC(=O)[C@H](Cc2c[nH]c3ccccc23)NC(=O)[C@H](CCCC(N)=O)NC(=O)[C@H](CC(C)C)NC(=O)[C@H]([C@@H](C)O)NC(=O)[C@H](Cc2c[nH]c3ccccc23)NC(=O)c2ccc(-c3nc(C(=O)OC)cs3)nc2-c2csc1n2 [IR8] (HELM PEPTIDE1{W.T.L.[O=C([C@H](CCCC(=O)[*:3])N[*:1])[*:2]].W.K.R.R.T.W.K}|PEPTIDE2{[am]}|CHEM1{[C=C(N[*:2])c1nc(-c2nc(-c3nc(C(=O)OC)cs3)ccc2C(=O)[*:1])cs1]}$PEPTIDE1,PEPTIDE2,4:R3-1:R1|PEPTIDE1,CHEM1,1:R1-1:R1|PEPTIDE1,CHEM1,11:R2-1:R2$$$V2.0; bridges inferred)	42 ± 4.8	152	9	9	koff [1]: 0.027 s⁻¹; kon [1]: 1.24e+06 M⁻¹ s⁻¹
CC[C@@H]1[C@H](F)C(=O)N[C@@H]1COc1nccc2cc(C(N)=O)c(OC)cc12 [PF-06650833, 1-{[(2S,3S,4S)-3-Ethyl-4-fluoro-5-oxopyrrolidin-2-yl]methoxy}-7-methoxyisoquinoline-6-carboxamide, reference compound]					cytotoxicity (Cell Counting Kit-8) (THP1-XBlue cells): not cytotoxic
B1					Kd [5]: 22 nM

Reference: publication PMC10683472, “Deep Learning-Driven Library Design for the De Novo Discovery of Bioactive Thiopeptides” (ACS Central Science, 2023)
